Entries after “also recorded” stand apart in the source; their conditions may differ. Like-named read-outs stand apart in the source and are kept apart here.
How the values were obtained:
[1] = biological target: T1, P2Y2-R (Homo sapiens, UniProt P41231); assay: [Ca2+]i increase in 1321N1 astrocytoma cells expressing P2Y2-R; type: cell-based; parameters: expressed in transfected cells; host or cells: 1321N1 astrocytoma cells
Method: (§1) Green fluorescent protein (GFP) constructs of human P2Y2-R, P2Y4-R and P2Y6-R were expressed in 1321N1 astrocytoma cells, which lack endogenous expression of P2X- and P2Y-receptors. The respective cDNA of the receptor gene was cloned into a pEGFPN1 vector. After transfection using FuGENE 6 Transfection Reagent (Roche Molecular Biochemicals, Mannheim, Germany), the cells were selected with 0.5 mg/ml G418 (geneticine; Merck Chemicals, Darmstadt, Germany) and grown in Dulbecco's modified Eagles' medium (DMEM) supplemented with 10% fetal calf serum, 100 U/ml penicillin and […] at 37° C. and 5% CO2. The expression and cell membrane localization of the respective P2Y receptors was confirmed through the analysis of the GFP fluorescence. The functionality of the expressed GFP-labeled receptor in cells was verified by recording a change of [Ca^2+]i after stimulation with the appropriate receptor agonist.
(§2) 1321N1 astrocytoma cells transfected with the respective plasmid for P2YR-GFP expression plated on coverslips (22 mm diameter) and grown to approximately 80% density were incubated with 2 μM fura 2/AM and 0.02% pluronic acid in Na-HBS buffer (Hepes buffered saline: 145 mM NaCl, 5.4 mM KCl, 1.8 mM CaCl2, 1 mM MgCl2, 25 mM glucose, 20 mM Hepes/Tris pH 7.4) for 30 min at 37° C. The cells were superfused (1 ml/min, 37° C.) with different concentrations of nucleotide in Na-HBS buffer, and the nucleotide-induced change of [Ca^2+]i was measured by detecting the respective emission intensity of fura 2/AM at 510 nm with after 340 nm and 380 nm excitations (Ubl et al., 1998). The average maximal amplitude of the responses and the respective standard errors were calculated from the ratio of the fura 2/AM fluorescence intensities with excitations at 340 nm and 380 nm (only MT-labeled cells were analysed). Microsoft Excel (Microsoft Corp., Redmond, Wash., USA) and SigmaPlot (SPSS Inc., Chicago, Ill., USA) were used to derive the concentration-response curves and EC50 values from the average response amplitudes obtained in at least three independent experiments (Ecke et al., 2006, 2008). Only cells with a clear MT-signal and with the typical calcium response kinetics upon agonist pulse application were included in the data analysis. The GFP-tagged P2Y receptors are suitable for pharmacological and physiological studies, as previously reported (Tulapurkar et al., 2004, 2006; Zylberg et al., 2007).
(§3) In this study, analogues 13-17 were tested for their potency and selectivity at P2Y2,4,6-receptors based on measurements of increases in intracellular calcium concentrations in 1321N1 astrocytoma cells transfected with the respective plasmid, as described in Materials and Methods, and the results are summarized in Table 2.

[2] = biological target: T2, P2Y4-R (Homo sapiens, UniProt P51582); assay: [Ca2+]i increase in 1321N1 astrocytoma cells expressing P2Y4-R; type: cell-based; details: n.d.r = no detectable response up to 100 μM
T2 construct: expressed in transfected cells; host or cells: 1321N1 astrocytoma cells
T2 sequence (P51582 whole entry): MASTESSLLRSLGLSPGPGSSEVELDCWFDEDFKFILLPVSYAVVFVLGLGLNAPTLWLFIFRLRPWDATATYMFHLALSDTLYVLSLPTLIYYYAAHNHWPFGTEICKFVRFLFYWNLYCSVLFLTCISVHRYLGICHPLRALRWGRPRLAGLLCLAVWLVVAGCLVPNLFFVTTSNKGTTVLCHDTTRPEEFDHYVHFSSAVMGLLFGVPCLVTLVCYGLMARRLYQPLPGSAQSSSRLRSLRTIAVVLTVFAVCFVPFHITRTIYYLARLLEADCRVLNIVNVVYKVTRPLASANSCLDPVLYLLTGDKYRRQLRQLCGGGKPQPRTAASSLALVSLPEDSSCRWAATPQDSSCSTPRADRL
Method: as §1, §2, §3

[3] = biological target: T3, P2Y6-R (Homo sapiens, UniProt Q15077); assay: [Ca2+]i increase in 1321N1 astrocytoma cells expressing P2Y6-R; type: cell-based; details: for EC50: 1321N1 astrocytoma cells, [Ca2+]i, read-out: Potencies (EC50) at the P2Y6-R; for Activity at the P2Y6-R (in words): 1321N1 cells
T3 construct: expressed in transfected cells; host or cells: 1321N1 astrocytoma cells
T3 sequence (Q15077 whole entry): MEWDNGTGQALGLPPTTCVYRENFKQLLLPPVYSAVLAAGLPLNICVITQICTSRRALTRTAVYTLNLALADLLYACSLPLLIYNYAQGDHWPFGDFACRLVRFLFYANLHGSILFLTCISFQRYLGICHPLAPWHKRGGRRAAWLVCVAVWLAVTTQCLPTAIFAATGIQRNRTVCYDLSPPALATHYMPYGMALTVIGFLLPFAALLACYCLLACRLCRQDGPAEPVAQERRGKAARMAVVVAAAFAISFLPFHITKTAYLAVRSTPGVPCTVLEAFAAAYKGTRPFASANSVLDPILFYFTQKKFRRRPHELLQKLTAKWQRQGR
Method: as §1, §2
1321N1 cell lines stably expressing the human P2Y6 receptors were grown as previously described in DMEM (5% FBS, 100 IU/ml penicillin, 100 μg/ml streptomycin, 1× Glutamax, 10 mM Hepes and 0.5 mg/ml G-418) at 37° C. in a humidified atmosphere containing 5% CO2 and 95% air (Gendron et al., 2003).
1321N1 cells (10×10^6 cells grown in 10 cm^2 dishes) were harvested by a brief trypsin/EDTA treatment, suspended in complete culture medium, and washed by centrifugation for 3 min at 100×g before being incubated with 1 μM Fluo 4/AM in 4.5 ml HBSS with Ca^2+ and Mg^2+ (Wisent, St. Bruno, QC) for 25 min at 37° C. Cells were washed by centrifugation (100×g, 3 min), suspended in HBSS containing Ca^2+ and Mg^2+, and incubated for 25 min at 37° C. Cells were washed and suspended in 16 ml of FIBSS containing Ca^+ and Mg^2+. Cell suspension (2 ml) was gently stirred in a quartz cuvette while [Ca^2+]i and monitored on a RF-5301 PC Shimadzu spectrofluorometer with Panormama fluorescence 1.1 software (Man-Tech, Guelph, ON). Excitation wavelengths of 488 nm and emission wavelength of 520 nm were used to measure changes in intracellular Fluo 4 fluorescence intensity (F). At the end of each recording, maximal fluorescence (Fmax) and minimal fluorescence (Fmin) were determined by adding successively 0.1% Triton X-100 and 50 mM EDTA to cell suspensions. The following equation from Grynkiewicz et al. (1985) was used to relate the fluorescence intensity to Ca^2+ levels: [Ca^2+]=Kd×(F−Fmin)/(Fmax−F), wherein Kd is the Ca^+ dissociation constant of the indicator (345 nM). […]

[4] = tested on: intraocular pressure in normotense rabbits; details: cited from earlier work
[5] = biological target: P2Y2 receptor (Rattus norvegicus, UniProt P41232); details: compared to ATP and UTP; Tulapurkar et al., 2004; cited from earlier work
Chain of P2Y2 receptor (P41232 whole entry): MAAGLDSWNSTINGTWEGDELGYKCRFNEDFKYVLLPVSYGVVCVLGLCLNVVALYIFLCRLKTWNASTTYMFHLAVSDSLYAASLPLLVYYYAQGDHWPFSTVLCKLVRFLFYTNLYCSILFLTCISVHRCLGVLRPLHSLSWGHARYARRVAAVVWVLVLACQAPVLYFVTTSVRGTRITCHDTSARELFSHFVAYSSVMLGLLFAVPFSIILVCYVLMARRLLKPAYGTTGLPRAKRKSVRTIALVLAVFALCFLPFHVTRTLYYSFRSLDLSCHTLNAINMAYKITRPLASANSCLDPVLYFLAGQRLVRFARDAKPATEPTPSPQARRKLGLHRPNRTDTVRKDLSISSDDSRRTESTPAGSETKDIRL

[6] = physchem; details: for Rate constant of phosphate ester hydrolysis at pH 1.4: pH 1.4, 37° C., pseudo-first-order
Method: All stability experiments were performed in duplicates.
The stability of UDP, 11, 12 and 13A in a buffer solution (pH 1.4) was evaluated by ^31P NMR at 37° C. for monitoring possible dephosphorylation products (the signal of the phosphate hydrolysis products is at ˜0 ppm, while that of the borano phosphate analogues is at ˜85 ppm). NMR spectra were recorded on a Bruker DMX-600 spectrometer with a ^31P NMR probe (isotope frequency of 240 MHz) using 85% H3PO4 as an external reference.
Sodium salts of UDP, 11, 12 and 13A were dissolved in 0.45 ml of KCl/HCl buffer (pH 1.4) and D2O (0.05 ml) was added. The final pH was adjusted to pH 1.4. pH measurements were performed with an Metrohm pH electrode and a Metrohm 827 meter. Spectra were recorded at 15 min, 1 h, or 24 h time intervals at 37° C. For experiments that were several days long, the solution was kept in an oil bath at 37° C. and spectra were recorded at ca. 24 h time intervals. The phosphate ester hydrolysis rate was determined by measuring the change of the integration of one of the phosphates signals of the starting material with time.

[7] = biological target: T1, P2Y2-R; details: Ginsburg-Shmuel et al., 2010; read-out: EC50 at P2Y2-R (literature); cited from earlier work
[8] = 1321N1 astrocytoma cells, [Ca2+]i, n.d.r = no detectable response up to 100 μM

T1 sequence (P41231 whole entry): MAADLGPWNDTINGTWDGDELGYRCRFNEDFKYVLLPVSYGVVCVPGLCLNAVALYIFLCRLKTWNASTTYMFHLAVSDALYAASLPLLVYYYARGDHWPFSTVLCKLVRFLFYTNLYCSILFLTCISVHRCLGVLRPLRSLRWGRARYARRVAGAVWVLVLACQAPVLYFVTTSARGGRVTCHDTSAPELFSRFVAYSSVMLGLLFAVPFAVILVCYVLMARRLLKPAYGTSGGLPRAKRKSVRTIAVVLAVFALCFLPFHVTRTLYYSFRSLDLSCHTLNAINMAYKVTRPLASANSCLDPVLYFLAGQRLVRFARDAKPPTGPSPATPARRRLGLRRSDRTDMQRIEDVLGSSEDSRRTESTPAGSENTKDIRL

Structure (SMILES) | Potencies (EC50) at the P2Y2-R [1, 8] | Potencies (EC50) at the P2Y4-R [2] | EC50 [3] | also measured
CSc1nc(N)c2ncn([C@@H]3O[C@H](COP(=O)(O)OP(=O)(O)C(Cl)(Cl)P(=O)(O)O)[C@@H](O)[C@H]3O)c2n1 [2MeS-adenosine-β,γ-CCl2-5′-triphosphate] | – | – | – | Duration of effect on IOP (literature) [4]: about 5 hours; Reduction of IOP (literature) [4]: 32%; EC50 ([4]; read-out: EC50 of IOP reduction (literature)): 95.5 nM
BP(=O)(OC[C@H]1O[C@@H](n2cnc3c(N)ncnc32)[C@H](O)[C@@H]1O)OP(=O)(O)OP(=O)(O)O (stereo partly drawn) [ATP(α-B)] | – | – | – | Response at the P2Y2 receptor (in words, literature) [5]: very weak response
[BH3-][P+](O)(OC[C@H]1O[C@@H](n2ccc(=O)[nH]c2=O)[C@H](O)[C@@H]1O)OP(=O)(O)O (stereo partly drawn) [Analogue 11, Uridine-5′-O-(α-boranodiphophate), reference compound] | – | – | – | Half-life in human blood serum: 21 h; Rate constant of phosphate ester hydrolysis at pH 1.4 [6]: 1.14×10^−5 s^−1
BP(=O)(OCC1OC(n2cc(OC)c(=O)[nH]c2=O)C(O)C1O)OP(=O)(O)O (stereo not drawn) [Analogue 13, 5-methoxyuridine-5′-O-(α-boranodiphosphate)] | – | – | – | Half-life (t1/2) of hydrolysis at pH 1.4 ([6]; buffer, pH 1.4): 16.9 h; Rate constant of phosphate ester hydrolysis at pH 1.4 [6]: 1.31×10^−5 s^−1
BP(=O)(OC[C@H]1O[C@@H](n2cc(OC)c(=O)[nH]c2=O)[C@H](O)[C@@H]1O)OP(=O)(O)OP(=O)(O)O (stereo partly drawn) [Analogue 14, 5-methoxyuridine-5′-O-(α-boranotriphosphate)] | – | – | – | Activity at the P2Y2-receptor (in words) ([1]; 1321N1 cells): completely inactive; Activity at the P2Y6-R (in words) [3]: hardly active
COc1cn([C@@H]2O[C@H](COP(=O)(O)OP(=O)(O)OP(=O)(O)OC[C@H]3O[C@@H](n4cc(OC)c(=O)[nH]c4=O)[C@H](O)[C@@H]3O)[C@@H](O)[C@H]2O)c(=O)[nH]c1=O [Analogue 15, di-(5-OMe)-uridine 5′,5″-P^1,P^3, triphosphate] | n.d.r | n.d.r | > 10000 nM | Activity at the P2Y6-R (in words) [3]: least active P2Y6-R agonist; also recorded: weakest potency among the tested nucleotides
[BH3-][P+](O)(OP(=O)(O)OC[C@H]1O[C@@H](n2cc(OC)c(=O)[nH]c2=O)[C@H](O)[C@@H]1O)OP(=O)(O)OC[C@H]1O[C@@H](n2cc(OC)c(=O)[nH]c2=O)[C@H](O)[C@@H]1O [Analogue 17, di-(5-OMe)-uridine 5″5″-P^1,P^3,β-boranotriphosphate] | n.d.r | n.d.r | 200 nM | –
O=c1ccn([C@@H]2O[C@H](COP(=O)(O)OP(=O)(O)OP(=O)(O)O)[C@@H](O)[C@H]2O)c(=O)[nH]1 [UTP, reference compound] | – | – | – | EC50 ([1]; 1321N1 astrocytoma cells, [Ca2+]i, n.d.r = no detectable response up to 100 μM, read-out: Potencies (EC50) at the P2Y2-R): 140 nM; EC50 [7]: 100 nM; EC50 ([2]; read-out: Potencies (EC50) at the P2Y4-R): 900 nM

More lines, main results first:

Potencies (EC50) at the P2Y2-R [1, 8] | Potencies (EC50) at the P2Y4-R [2] | EC50 [3] | Structure (SMILES) | also measured
n.d.r | n.d.r | 4300 nM | [BH3-][P+](O)(OCC1OC(n2cc(OC)c(=O)[nH]c2=O)C(O)C1O)OP(=O)(O)O (single isomer, unassigned) [Analogue 13B, 5-methoxyuridine-5′-O-(α-boranodiphosphate)] | –
n.d.r | n.d.r | 11200 ± 630 nM | [BH3-][P+](O)(OC[C@H]1O[C@@H](n2cc(OC)c(=O)[nH]c2=O)[C@H](O)[C@@H]1O)OP(=O)(O)OP(=O)(O)O (single isomer, unassigned) [Analogue 14A, 5-methoxyuridine-5′-O-(α-boranotriphosphate)] | –
n.d.r | n.d.r | 20100 ± 700 nM | [BH3-][P+](O)(OC[C@H]1O[C@@H](n2cc(OC)c(=O)[nH]c2=O)[C@H](O)[C@@H]1O)OP(=O)(O)OP(=O)(O)O (single isomer, unassigned) [Analogue 14B, 5-methoxyuridine-5′-O-(α-boranotriphosphate)] | –
n.d.r | n.d.r | 60 nM | [BH3-][P+](O)(OCC1OC(n2cc(OC)c(=O)[nH]c2=O)C(O)C1O)OP(=O)(O)OP(=O)(O)OCC1OC(n2cc(OC)c(=O)[nH]c2=O)C(O)C1O (single isomer, unassigned) [Analogue 16A, di-(5-OMe)-uridine 5′,5″-P^1,P^3,α-boranotriphosphate] | Less potent than mono-nucleotide counterpart 13A at P2Y6-R ([3]; ratio of EC50 values): about 9 times
n.d.r | n.d.r | 2200 nM | [BH3-][P+](O)(OCC1OC(n2cc(OC)c(=O)[nH]c2=O)C(O)C1O)OP(=O)(O)OP(=O)(O)OCC1OC(n2cc(OC)c(=O)[nH]c2=O)C(O)C1O (single isomer, unassigned) [Analogue 16B, di-(5-OMe)-uridine 5′,5″-P^1,P^3,α-boranotriphosphate] | –

From patent US9221868B2, “Uridine di- or tri-phosphate derivatives and uses thereof” (BAR-ILAN UNIVERSITY, priority 2010, dated 2015)
